Measurements taken from ChEMBL document CHEMBL5625174, “Are inhibitors of histone deacetylase 8 (HDAC8) effective in hematological cancers especially acute myeloid leukemia (AML) and acute lymphoblastic leukemia (ALL)?” (Eur J Med Chem, 2023).

What was measured:
[1] = tested on: U-937; test: Cytotoxicity against human U-937 cells assessed as reduction in cell viability; format: functional, cell-based
[2] = tested on: Jurkat E6.1; test: Cytotoxicity against human Jurkat E6.1 cells assessed as reduction in cell viability; format: functional, cell-based
[3] = tested on: MOLT-4; test: Cytotoxicity against human MOLT-4 cells assessed as reduction in cell viability; format: functional, cell-based
[4] = target: Histone deacetylase; test: Inhibition of HDAC (unknown origin) using Fluoro-Substrate Peptide as substrate by fluorescence assay; format: protein assay, Homo sapiens
[5] = target: T1, Histone deacetylase 8 (Homo sapiens, UniProt Q9BY41); test: Inhibition of HDAC8 (unknown origin) by fluorescence based assay
T1 sequence (Q9BY41 whole entry): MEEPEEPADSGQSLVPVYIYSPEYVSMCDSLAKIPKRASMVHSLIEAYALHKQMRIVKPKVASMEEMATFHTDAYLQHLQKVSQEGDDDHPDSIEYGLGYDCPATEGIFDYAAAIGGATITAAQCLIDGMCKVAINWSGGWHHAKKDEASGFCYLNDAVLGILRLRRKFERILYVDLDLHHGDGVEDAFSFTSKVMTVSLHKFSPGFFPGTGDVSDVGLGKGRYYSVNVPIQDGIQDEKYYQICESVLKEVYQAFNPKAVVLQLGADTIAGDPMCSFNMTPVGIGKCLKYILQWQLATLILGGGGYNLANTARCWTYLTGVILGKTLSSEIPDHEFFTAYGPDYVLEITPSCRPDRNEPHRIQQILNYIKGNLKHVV

Row | Structure (SMILES) | IC50 [1] | IC50 [2] | IC50 [3] | IC50 [4] | IC50 [5]
1 | CCCCNC(=O)[C@H](CCC(=O)O)NC(=O)Cc1ccc(Cl)cc1Cl | > 35 µM | < 35 µM | < 35 µM |  | 
2 | CCCNC(=O)[C@H](CCC(=O)O)NC(=O)Cc1ccc(Cl)cc1 | > 35 µM | ≤ 35 µM | > 35 µM |  | 
3 | CCCNC(=O)[C@H](CCC(=O)O)NC(=O)Cc1ccc(-c2ccccc2)cc1 | > 35 µM | < 35 µM | < 35 µM |  | 
4 | O=C(O)CC[C@H](NC(=O)Cc1ccc(-c2ccccc2)cc1)C(=O)NC1CCCCC1 | > 35 µM | < 35 µM | < 35 µM |  | 
5 | CC(C)CNC(=O)[C@H](CCC(=O)O)NC(=O)Cc1ccccc1 | > 35 µM | > 35 µM | > 35 µM |  | 
6 | CC(C)(C)NC(=O)[C@H](CCC(=O)O)NC(=O)Cc1ccc(Cl)cc1 | > 35 µM | < 35 µM | < 35 µM |  | 
7 | CCCCCCNC(=O)[C@H](CCC(=O)O)NC(=O)Cc1ccc(Cl)cc1Cl | ≤ 35 µM | ≤ 35 µM | ≤ 35 µM | > 10 µM | ≤ 10 µM
8 | O=C(O)CC[C@H](NC(=O)Cc1ccc(Br)cc1)C(=O)NCc1ccccc1Cl | > 35 µM | > 35 µM | < 35 µM | > 10 µM | ≤ 10 µM
9 | CCCCNC(=O)[C@H](CCC(=O)O)NC(=O)Cc1ccc(Br)cc1 | > 35 µM | ≤ 35 µM | ≤ 35 µM |  | 
10 | CCCCCNC(=O)[C@H](CCC(=O)O)NC(=O)Cc1ccccc1 | > 35 µM | ≤ 35 µM | ≤ 35 µM |  | 
11 | CCCCCNC(=O)[C@H](CCC(=O)O)NC(=O)Cc1ccccc1Cl | > 35 µM | ≤ 35 µM | > 35 µM |  | 
12 | CCCCNC(=O)[C@H](CCC(=O)O)NC(=O)Cc1ccccc1 | > 35 µM | > 35 µM | ≤ 35 µM |  | 
13 | O=C(O)CC[C@H](NC(=O)Cc1ccc([N+](=O)[O-])cc1)C(=O)NCc1ccccc1 | > 35 µM | < 35 µM | < 35 µM |  | 
14 | CC(C)NC(=O)[C@H](CCC(=O)O)NC(=O)Cc1ccc(-c2ccccc2)cc1 | > 35 µM | < 35 µM | > 35 µM |  | 
15 | O=C(O)CC[C@H](NC(=O)Cc1ccc(Br)cc1)C(=O)NCc1ccccc1 | > 35 µM | ≤ 35 µM | ≤ 35 µM | > 10 µM | ≤ 10 µM
16 | CCCCCNC(=O)[C@H](CCC(=O)O)NC(=O)Cc1ccccc1Br | > 35 µM | > 35 µM | < 35 µM |  | 

Row | Structure (SMILES) | IC50 [1] | IC50 [2] | IC50 [3] | IC50 [4] | IC50 [5]
17 | CCCNC(=O)[C@H](CCC(=O)O)NC(=O)Cc1ccc(Br)cc1 | > 35 µM | ≤ 35 µM | ≤ 35 µM |  | 
18 | CCCNC(=O)[C@H](CCC(=O)O)NC(=O)Cc1ccccc1 | > 35 µM | ≤ 35 µM | ≤ 35 µM |  | 
19 | CC(C)CNC(=O)[C@H](CCC(=O)O)NC(=O)Cc1ccccc1Cl | > 35 µM | ≤ 35 µM | ≤ 35 µM |  | 
20 | O=C(O)CC[C@H](NC(=O)Cc1ccc(-c2ccccc2)cc1)C(=O)NCc1ccccc1 | < 35 µM | < 35 µM | < 35 µM | > 10 µM | ≤ 10 µM
21 | O=C(O)CC[C@H](NC(=O)Cc1ccc(Cl)cc1)C(=O)NC1CCCCC1 | > 35 µM | < 35 µM | < 35 µM |  | 
22 | CC(C)CNC(=O)[C@H](CCC(=O)O)NC(=O)Cc1ccccc1Br | > 35 µM | < 35 µM | < 35 µM |  | 
23 | O=C(O)CC[C@H](NC(=O)Cc1ccccc1Cl)C(=O)NCc1ccccc1 | > 35 µM | ≤ 35 µM | ≤ 35 µM |  | 
24 | CCCCNC(=O)[C@H](CCC(=O)O)NC(=O)Cc1ccc([N+](=O)[O-])cc1 | > 35 µM | < 35 µM | < 35 µM |  | 
25 | COc1ccc(CC(=O)N[C@@H](CCC(=O)O)C(=O)NCc2ccccc2)cc1 | > 35 µM | ≤ 35 µM | ≤ 35 µM |  | 
26 | CCCCCNC(=O)[C@H](CCC(=O)O)NC(=O)Cc1ccc([N+](=O)[O-])cc1 | > 35 µM | < 35 µM | < 35 µM |  | 
27 | CCCCNC(=O)[C@H](CCC(=O)O)NC(=O)Cc1ccccc1Cl | > 35 µM | ≤ 35 µM | ≤ 35 µM |  | 
28 | CCCCNC(=O)[C@H](CCC(=O)O)NC(=O)Cc1ccc(-c2ccccc2)cc1 | > 35 µM | < 35 µM | < 35 µM |  | 
29 | CCCCCNC(=O)[C@H](CCC(=O)O)NC(=O)Cc1ccccc1F | > 35 µM | < 35 µM | < 35 µM |  | 
30 | CCCCNC(=O)[C@H](CCC(=O)O)NC(=O)Cc1ccccc1F | > 35 µM | < 35 µM | > 35 µM |  | 
31 | CCCCCNC(=O)[C@H](CCC(=O)O)NC(=O)Cc1ccc(Br)cc1 | > 35 µM | ≤ 35 µM | ≤ 35 µM |  | 
